Patent publication US20130281465A1, “PYRAZOLE DERIVATIVE” (TAISHO PHARMACEUTICAL CO., LTD., priority 2010, published 2013)

Tests used:
[1] = target: T1, human orexin type 1 receptor (hOX1R) (Homo sapiens, UniProt O43613); assay: Orexin receptor antagonistic activity, intracellular Ca2+ fluorescence (FDSS) in CHO cells expressing hOX1R; assay type: cell-based; settings: CHO cells forced to express hOX1R; orexin-A analogue peptide ligand 300 pM; Fluo-4 maximum fluorescence; read-out: IC50 value OX1R
T1 construct: expressed in transfected cells; host or cells: Chinese hamster ovary (CHO) cells
T1 sequence (O43613 1-425): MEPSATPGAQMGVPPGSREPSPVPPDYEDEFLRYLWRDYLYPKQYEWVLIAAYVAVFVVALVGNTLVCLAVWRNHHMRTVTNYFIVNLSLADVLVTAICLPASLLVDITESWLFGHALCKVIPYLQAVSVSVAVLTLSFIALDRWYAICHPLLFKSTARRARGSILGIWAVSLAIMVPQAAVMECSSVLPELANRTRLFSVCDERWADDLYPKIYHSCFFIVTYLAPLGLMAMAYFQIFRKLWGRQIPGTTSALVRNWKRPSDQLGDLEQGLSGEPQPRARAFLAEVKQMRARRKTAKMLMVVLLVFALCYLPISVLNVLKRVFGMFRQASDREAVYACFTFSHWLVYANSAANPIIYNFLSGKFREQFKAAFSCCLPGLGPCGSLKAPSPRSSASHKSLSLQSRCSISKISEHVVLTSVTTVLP
Description: (§1) The antagonistic activity of each test compound against human orexin type 1 receptor (hOX1R) and orexin type 2 receptor (hOX2R) was performed as described in the literature with a modification (Toshikatsu Okumura et al., Biochemical and Biophysical Research Communications 280, 976-981, 2001). Chinese hamster ovary (CHO) cells forced to express hOX1R or hOX2R were seeded at 20,000 cells/well on a 96 well Black clear bottom plates (Nunc) and cultured for 16 hours under conditions of 37° C. and 5% CO2 using a Ham's F-12 medium containing 0.1 mM MEM non-essential amino acids, 0.5 mg/ml G418, and 10% fetal bovine serum (all from Invitrogen Corp.). After removal of the medium, 100 μL of the assay buffer (25 mM HEPES (Dojindo Laboratories), Hanks' balanced salt solution (Invitrogen Corp.), 0.1% bovine serum albumin, 2.5 mM probenecid, 200 μg/ml Amaranth (all from Sigma-Aldrich Corp.), pH 7.4) containing 0.5 μM Fluo-4AM ester (Dojindo Laboratories) was added thereto, and the cells were incubated for 60 minutes under conditions of 37° C. and 5% CO2. After removal of the buffer solution for assay containing Fluo-4AM ester, the test compound was dissolved at a concentration of 10 mM in dimethyl sulfoxide and diluted with the assay buffer, and 150 μL of the diluted solution was then added to each wells, which were then incubated for 30 minutes.
(§2) A peptide (Pyr-[…]11e-Leu-Thr-Leu-NH2; Peptide Institute, Inc.) substituted 2 amino acids of human orexin-A was diluted with the assay buffer to 300 pM (final concentration for hOX1R) or 3 nM (final concentration for hOX2R). 50 μL of this ligand solution was added thereto to start reaction. During the reaction, the fluorescence value of each well was measured every one second for 3 minutes using Functional Drug Screening System (FDSS; manufactured by Hamamatsu Photonics K.K.), and antagonistic activity was determined with the maximum fluorescence value as an index for intracellular Ca^2+ concentration. The antagonistic activity of the test compound was calculated with the fluorescence value of a well supplemented with only a dilution buffer solution as 100% and the fluorescence value of a well supplemented with a buffer solution containing neither the ligand nor the compound as 0%, and determined in terms of 50% inhibitory concentration (IC50 value) from fluorescence values derived from the test compound added at varying concentrations.

[2] = target: T2, orexin type 2 receptor (hOX2R) (Homo sapiens, UniProt O43614); assay: Orexin receptor antagonistic activity, intracellular Ca2+ fluorescence (FDSS) in CHO cells expressing hOX2R; assay type: cell-based; settings: CHO cells forced to express hOX2R; orexin-A analogue peptide ligand 3 nM; Fluo-4 maximum fluorescence; read-out: IC50 value OX2R
T2 construct: expressed in transfected cells; host or cells: Chinese hamster ovary (CHO) cells
T2 sequence (O43614 1-444): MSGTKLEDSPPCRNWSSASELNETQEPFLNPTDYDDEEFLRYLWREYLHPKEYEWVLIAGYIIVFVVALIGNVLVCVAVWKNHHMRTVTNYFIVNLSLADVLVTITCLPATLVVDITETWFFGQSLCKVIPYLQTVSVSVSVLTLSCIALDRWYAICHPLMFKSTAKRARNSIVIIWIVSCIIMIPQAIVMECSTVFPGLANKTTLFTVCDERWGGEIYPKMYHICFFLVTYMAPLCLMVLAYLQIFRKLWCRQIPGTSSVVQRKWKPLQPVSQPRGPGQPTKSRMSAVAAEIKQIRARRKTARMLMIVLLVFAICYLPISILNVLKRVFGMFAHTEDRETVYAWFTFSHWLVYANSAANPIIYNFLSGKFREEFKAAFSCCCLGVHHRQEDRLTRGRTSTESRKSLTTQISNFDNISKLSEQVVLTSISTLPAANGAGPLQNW
Description: as §1, §2

IC50 [1] [nM]	IC50 [2] [nM]	Compound
1040	2390	Cc1ccc(-n2nccn2)c(C(=O)NCCn2cc(-c3ccc(F)cn3)cn2)c1 [Example 1, N-{2-[4-(5-fluoropyridin-2-yl)-1H-pyrazol-1-yl]ethyl}-5-methyl-2-(2H-1,2,3-triazol-2-yl)benzamide]
17.9	47.3	Cc1ccc(-n2nccn2)c(C(=O)N(C)CCn2cc(-c3ccc(F)cn3)cn2)c1 [Example 2, N-{2-[4-(5-fluoropyridin-2-yl)-1H-pyrazol-1-yl]ethyl}-N,5-dimethyl-2-(2H-1,2,3-triazol-2-yl)benzamide]
2.2	7.1	Cc1ccc(-n2nccn2)c(C(=O)N(C)CCn2cc(-c3ccc(F)cc3)cn2)c1 [Example 3-2, N-{2-[4-(4-fluorophenyl)-1H-pyrazol-1-yl]ethyl}-N,5-dimethyl-2-(2H-1,2,3-triazol-2-yl)benzamide]
6	14.6	CCN(CCn1cc(-c2ccc(F)cn2)cn1)C(=O)c1cc(C)ccc1-n1nccn1 [Example 4, N-ethyl-N-{2-[4-(5-fluoropyridin-2-yl)-1H-pyrazol-1-yl]ethyl}-5-methyl-2-(2H-1,2,3-triazol-2-yl)benzamide]
102	38.7	Cc1ccc(-n2nccn2)c(C(=O)N(CCn2cc(-c3ccc(F)cn3)cn2)CC2CC2)c1 [Example 5, N-(cyclopropylmethyl)-N-{2-[4-(5-fluoropyridin-2-yl)-1H-pyrazol-1-yl]ethyl}-5-methyl-2-(2H-1,2,3-triazol-2-yl)benzamide]
50.1	2.6	Cc1ccc(-n2nccn2)c(C(=O)N(CCn2cc(-c3ccc(F)cc3)cn2)CC2CC2)c1 [Example 6, N-(cyclopropylmethyl)-N-{2-[4-(4-fluorophenyl)-1H-pyrazol-1-yl]ethyl}-5-methyl-2-(2H-1,2,3-triazol-2-yl)benzamide]
2.3	6.3	CCN(CCn1cc(-c2ccc(F)cc2)cn1)C(=O)c1cc(C)ccc1-n1nccn1 [Example 7, N-ethyl-N-{2-[4-(4-fluorophenyl)-1H-pyrazol-1-yl]ethyl}-5-methyl-2-(2H-1,2,3-triazol-2-yl)benzamide]
0.9	2.5	CCN(CCn1ccc(-c2ccc(F)cc2)n1)C(=O)c1cc(C)ccc1-n1nccn1 [Example 8, N-ethyl-N-{2-[3-(4-fluorophenyl)-1H-pyrazol-1-yl]ethyl}-5-methyl-2-(2H-1,2,3-triazol-2-yl)benzamide]
1	4.3	CCN(CCn1ccc(-c2ccccn2)n1)C(=O)c1cc(C)ccc1-n1nccn1 [Example 9, N-ethyl-5-methyl-N-{2-[3-(pyridin-2-yl)-1H-pyrazol-1-yl]ethyl}-2-(2H-1,2,3-triazol-2-yl)benzamide]
14.4	52.6	CCN(CCn1cc(-c2ccc(Cl)cn2)cn1)C(=O)c1cc(C)ccc1-n1nccn1 [Example 10, N-{2-[4-(5-chloropyridin-2-yl)-1H-pyrazol-1-yl]ethyl}-N-ethyl-5-methyl-2-(2H-1,2,3-triazol-2-yl)benzamide]
10.5	17.2	CCN(CCn1cc(-c2ccccn2)cn1)C(=O)c1cc(C)ccc1-n1nccn1 [Example 11, N-ethyl-5-methyl-N-{2-[4-(pyridin-2-yl)-1H-pyrazol-1-yl]ethyl}-2-(2H-1,2,3-triazol-2-yl)benzamide]
1.8	22.7	CCN(CCn1cc(-c2cccc(C)n2)cn1)C(=O)c1cc(C)ccc1-n1nccn1 [Example 12, N-ethyl-N-{2-[4-(6-methylpyridin-2-yl)-1H-pyrazol-1-yl]ethyl}-5-methyl-2-(2H-1,2,3-triazol-2-yl)benzamide]
9.8	15.4	Cc1ccc(-n2nccn2)c(C(=O)N(CCn2cc(-c3ccc(F)cn3)cn2)C2CC2)c1 [Example 13, N-cyclopropyl-N-{2-[4-(5-fluoropyridin-2-yl)-1H-pyrazol-1-yl]ethyl}-5-methyl-2-(2H-1,2,3-triazol-2-yl)benzamide]
597	412	Cc1ccc(-n2nccn2)c(C(=O)N(CCn2cc(-c3ccc(F)cn3)cn2)C(C)C)c1 [Example 14, N-{2-[4-(5-fluoropyridin-2-yl)-1H-pyrazol-1-yl]ethyl}-5-methyl-N-(propan-2-yl)-2-(2H-1,2,3-triazol-2-yl)benzamide]
29.8	88.3	CCN(CCn1cc(-c2ccc(F)cn2)cn1)C(=O)c1cc(C)ccc1-c1ncccn1 [Example 15, N-ethyl-N-{2-[4-(5-fluoropyridin-2-yl)-1H-pyrazol-1-yl]ethyl}-5-methyl-2-(pyrimidin-2-yl)benzamide]
115	598	Cc1ccc(-n2nccn2)c(C(=O)NCCn2ccc(-c3ccc(F)cn3)n2)c1 [Example 16, N-{2-[3-(5-fluoropyridin-2-yl)-1H-pyrazol-1-yl]ethyl}-5-methyl-2-(2H-1,2,3-triazol-2-yl)benzamide]
5.6	22.8	Cc1ccc(-n2nccn2)c(C(=O)N(C)CCn2ccc(-c3ccc(F)cn3)n2)c1 [Example 17, N-{2-[3-(5-fluoropyridin-2-yl)-1H-pyrazol-1-yl]ethyl}-N,5-dimethyl-2-(2H-1,2,3-triazol-2-yl)benzamide]
6.8	2.2	Cc1ccc(-n2nccn2)c(C(=O)N(CCn2ccc(-c3ccc(F)cn3)n2)CC2CC2)c1 [Example 18, N-(cyclopropylmethyl)-N-{2-[3-(5-fluoropyridin-2-yl)-1H-pyrazol-1-yl]ethyl}-5-methyl-2-(2H-1,2,3-triazol-2-yl)benzamide]
1.5	3.9	CCN(CCn1ccc(-c2ccc(F)cn2)n1)C(=O)c1cc(C)ccc1-n1nccn1 [Example 19, N-ethyl-N-{2-[3-(5-fluoropyridin-2-yl)-1H-pyrazol-1-yl]ethyl}-5-methyl-2-(2H-1,2,3-triazol-2-yl)benzamide]
0.9	8.8	Cc1ccc(-n2nccn2)c(C(=O)N(C)CCn2ccc(-c3ccc(F)cc3)n2)c1 [Example 20-2, N-{2-[3-(4-fluorophenyl)-1H-pyrazol-1-yl]ethyl}-N,5-dimethyl-2-(2H-1,2,3-triazol-2-yl)benzamide]
3.7	20.3	Cc1ccc(-n2nccn2)c(C(=O)N(CCF)CCn2ccc(-c3ccc(F)cn3)n2)c1 [Example 21, N-{2-[3-(5-fluoropyridin-2-yl)-1H-pyrazol-1-yl]ethyl}-5-methyl-N-(2-fluoroethyl)-2-(2H-1,2,3-triazol-2-yl)benzamide]
10.5	32.5	Cc1ccc(-n2nccn2)c(C(=O)N(CCn2ccc(-c3ccc(F)cn3)n2)CC(F)F)c1 [Example 22, N-(2,2-difluoroethyl)-N-{2-[3-(5-fluoropyridin-2-yl)-1H-pyrazol-1-yl]ethyl}-5-methyl-2-(2H-1,2,3-triazol-2-yl)benzamide]
76	132	CN(CCn1ccc(-c2ccc(F)cn2)n1)C(=O)c1cc(F)ccc1-n1nccn1 [Example 23-2, N-methyl-N-{2-[3-(5-fluoropyridin-2-yl)-1H-pyrazol-1-yl]ethyl}-5-fluoro-2-(2H-1,2,3-triazol-2-yl)benzamide]
